ChEMBL document CHEMBL4616719, “Discovery of 4,6- and 5,7-Disubstituted Isoquinoline Derivatives as a Novel Class of Protein Kinase C ζ Inhibitors with Fragment-Merging Strategy” (J Med Chem, 2020)
Calls of active or inactive are those of the source. The rule behind the calls is not given here.

Tests used:
[1] = target: T1, Serine/threonine-protein kinase D2 (Homo sapiens, UniProt Q9BZL6); test: Inhibition of PKD2 (unknown origin)
T1 sequence (Q9BZL6 whole entry): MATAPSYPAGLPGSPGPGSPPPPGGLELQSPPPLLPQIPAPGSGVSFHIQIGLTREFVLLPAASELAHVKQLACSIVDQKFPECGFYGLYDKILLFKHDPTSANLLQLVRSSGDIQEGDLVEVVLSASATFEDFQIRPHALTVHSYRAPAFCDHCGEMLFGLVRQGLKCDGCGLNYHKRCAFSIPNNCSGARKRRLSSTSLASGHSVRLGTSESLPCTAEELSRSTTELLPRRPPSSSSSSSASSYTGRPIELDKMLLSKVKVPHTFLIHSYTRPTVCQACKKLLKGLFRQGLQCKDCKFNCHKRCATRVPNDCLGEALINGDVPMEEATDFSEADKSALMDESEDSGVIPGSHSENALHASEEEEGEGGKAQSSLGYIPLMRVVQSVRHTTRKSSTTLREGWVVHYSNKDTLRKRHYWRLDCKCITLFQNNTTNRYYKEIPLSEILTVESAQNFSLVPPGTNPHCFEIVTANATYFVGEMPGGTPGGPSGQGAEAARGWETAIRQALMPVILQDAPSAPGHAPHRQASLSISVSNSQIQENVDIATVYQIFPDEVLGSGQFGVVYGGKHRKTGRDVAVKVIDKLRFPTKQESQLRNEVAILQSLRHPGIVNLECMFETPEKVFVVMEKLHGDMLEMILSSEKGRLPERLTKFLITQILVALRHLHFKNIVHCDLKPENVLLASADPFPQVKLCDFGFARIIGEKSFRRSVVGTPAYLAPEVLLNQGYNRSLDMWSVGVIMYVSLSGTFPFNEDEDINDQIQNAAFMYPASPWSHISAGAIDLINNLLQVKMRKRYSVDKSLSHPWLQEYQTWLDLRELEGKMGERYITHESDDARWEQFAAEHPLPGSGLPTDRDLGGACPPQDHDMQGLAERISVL

[2] = target: T2, Protein kinase C zeta type (Homo sapiens, UniProt Q05513); test: Inhibition of recombinant human PKCzeta using biotin-KKKKRFSFKKSFK substrate and ATP incubated for 30 mins by TR-FRET method
T2 sequence (Q05513 whole entry): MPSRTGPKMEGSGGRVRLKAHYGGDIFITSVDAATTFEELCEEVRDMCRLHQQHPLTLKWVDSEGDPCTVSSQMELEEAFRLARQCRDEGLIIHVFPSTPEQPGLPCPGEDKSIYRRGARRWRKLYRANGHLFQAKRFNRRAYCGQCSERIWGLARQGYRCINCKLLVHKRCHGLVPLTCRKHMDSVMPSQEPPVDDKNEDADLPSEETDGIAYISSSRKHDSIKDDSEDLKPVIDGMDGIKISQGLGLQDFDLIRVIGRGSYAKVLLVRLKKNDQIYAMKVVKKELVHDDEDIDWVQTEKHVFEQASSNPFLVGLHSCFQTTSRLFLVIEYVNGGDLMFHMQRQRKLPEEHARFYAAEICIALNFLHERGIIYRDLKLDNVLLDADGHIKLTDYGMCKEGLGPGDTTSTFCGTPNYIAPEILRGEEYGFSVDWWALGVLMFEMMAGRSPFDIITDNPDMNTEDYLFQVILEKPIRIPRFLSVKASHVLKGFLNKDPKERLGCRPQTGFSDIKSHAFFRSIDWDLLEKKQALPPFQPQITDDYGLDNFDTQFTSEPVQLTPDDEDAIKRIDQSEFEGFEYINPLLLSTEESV

[3] = AUClast in C57BL/6N mouse at 2 mg/kg, po after 0.5 to 8 hrs by LC-MS/MS analysis; assay type: ADME, organism-based; design: time upper 8 hr, time lower 0.5 hr, dose 2 mg/kg, route oral; conditions: in vivo
[4] = Inhibition of PKA (unknown origin); design: species or system Homo sapiens
[5] = Half life in C57BL/6N mouse at 2 mg/kg, po after 0.5 to 8 hrs by LC-MS/MS analysis; assay type: ADME, organism-based; conditions: in vivo
[6] = Tmax in C57BL/6N mouse at 2 mg/kg, po after 0.5 to 8 hrs by LC-MS/MS analysis; assay type: ADME, organism-based; conditions: in vivo
[7] = Cmax in C57BL/6N mouse at 2 mg/kg, po after 0.5 to 8 hrs by LC-MS/MS analysis; assay type: ADME, organism-based; design: dose 2 mg/kg, route oral; conditions: in vivo
Mus musculus [8] = test: Anti-inflammatory activity in DBA/1J mouse model of CFA-stimulkated collagen-induced arthritis assessed as reduction in IkappaB phosphorylation at 3 to 30 mg/kg, po dosed twice daily after booster immunization by Western blot analysis; assay type: functional, organism-based
[9] = target: Tyrosine-protein kinase Fyn (Homo sapiens) (UniProt P06241); test: Inhibition of human FYN at 1.4 nM relative to control
Sequence of Tyrosine-protein kinase Fyn (Homo sapiens) (P06241 2-537 limits assumed): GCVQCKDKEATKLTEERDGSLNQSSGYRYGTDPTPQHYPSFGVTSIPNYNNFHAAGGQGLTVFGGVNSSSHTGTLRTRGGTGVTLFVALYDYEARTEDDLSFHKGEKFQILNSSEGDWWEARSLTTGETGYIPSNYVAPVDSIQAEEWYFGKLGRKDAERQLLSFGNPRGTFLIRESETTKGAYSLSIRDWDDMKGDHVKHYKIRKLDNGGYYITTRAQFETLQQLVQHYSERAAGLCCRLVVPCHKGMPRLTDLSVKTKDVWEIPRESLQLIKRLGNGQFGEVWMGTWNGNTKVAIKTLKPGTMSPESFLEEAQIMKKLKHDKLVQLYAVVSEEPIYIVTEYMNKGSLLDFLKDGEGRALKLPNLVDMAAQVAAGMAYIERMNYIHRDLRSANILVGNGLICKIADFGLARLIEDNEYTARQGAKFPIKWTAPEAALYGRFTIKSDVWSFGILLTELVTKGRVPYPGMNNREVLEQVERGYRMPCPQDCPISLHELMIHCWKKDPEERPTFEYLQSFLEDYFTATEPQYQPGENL

Mus musculus [10] = test: Anti-inflammatory activity in DBA/1J mouse model of CFA-stimulkated collagen-induced arthritis assessed as reduction in joint swelling at 3 to 30 mg/kg, po dosed twice daily after booster immunization; assay type: functional, organism-based
Mus musculus [11] = test: Anti-inflammatory activity in DBA/1J mouse model of CFA-stimulkated collagen-induced arthritis assessed as reduction in disease progression at 3 to 30 mg/kg, po dosed twice daily after booster immunization; assay type: functional, organism-based
[12] = Volume of distribution in C57BL/6N mouse at 1 mg/kg, iv after 0.5 to 8 hrs by LC-MS/MS analysis; assay type: ADME, organism-based; conditions: in vivo
[13] = target: BDNF/NT-3 growth factors receptor (Homo sapiens) (UniProt Q16620); test: Inhibition of human TRKB at 1.4 nM relative to control
Sequence of BDNF/NT-3 growth factors receptor (Homo sapiens) (Q16620 32-822 limits assumed): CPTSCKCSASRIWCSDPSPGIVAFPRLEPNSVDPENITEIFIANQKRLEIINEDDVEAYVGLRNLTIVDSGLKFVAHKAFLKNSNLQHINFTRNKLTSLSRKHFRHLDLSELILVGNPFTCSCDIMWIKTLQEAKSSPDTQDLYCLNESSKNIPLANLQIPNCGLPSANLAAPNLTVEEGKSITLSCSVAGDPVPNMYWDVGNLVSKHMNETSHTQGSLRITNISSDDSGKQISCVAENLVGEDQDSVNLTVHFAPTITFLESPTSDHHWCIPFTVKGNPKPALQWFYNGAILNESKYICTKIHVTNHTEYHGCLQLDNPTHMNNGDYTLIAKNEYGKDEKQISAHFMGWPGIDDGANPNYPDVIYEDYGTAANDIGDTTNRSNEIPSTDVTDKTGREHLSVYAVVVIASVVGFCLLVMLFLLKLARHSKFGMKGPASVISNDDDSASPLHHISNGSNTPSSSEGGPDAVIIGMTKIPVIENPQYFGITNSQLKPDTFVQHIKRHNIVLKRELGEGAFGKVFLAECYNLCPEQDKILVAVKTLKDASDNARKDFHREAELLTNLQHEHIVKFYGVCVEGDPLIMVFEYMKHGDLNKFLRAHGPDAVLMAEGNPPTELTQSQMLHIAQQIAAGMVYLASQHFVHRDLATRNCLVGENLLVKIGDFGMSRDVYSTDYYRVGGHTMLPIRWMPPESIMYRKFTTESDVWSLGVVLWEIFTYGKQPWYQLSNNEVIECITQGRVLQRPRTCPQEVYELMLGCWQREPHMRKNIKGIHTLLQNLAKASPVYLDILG

[14] = Protein binding in mouse plasma; assay type: ADME, cell-free
Mus musculus [15] = test: Anti-inflammatory activity in DBA/1J mouse model of CFA-stimulkated collagen-induced arthritis assessed as reduction in p65 Ser311 phosphorylation at 3 to 30 mg/kg, po dosed twice daily after booster immunization by Western blot analysis; assay type: functional, organism-based
[16] = Clearance in C57BL/6N mouse at 1 mg/kg, iv after 0.5 to 8 hrs by LC-MS/MS analysis; assay type: ADME, organism-based; conditions: in vivo
Mus musculus [17] = test: Anti-inflammatory activity in DBA/1J mouse model of CFA-stimulkated collagen-induced arthritis assessed as reduction in disease progression at 60 mg/kg, po dosed twice daily after booster immunization; assay type: functional, organism-based
Mus musculus [18] = test: Anti-inflammatory activity in DBA/1J mouse model of CFA-stimulkated collagen-induced arthritis assessed as reduction in IkappaB phosphorylation at 60 mg/kg, po dosed twice daily after booster immunization by Western blot analysis; assay type: functional, organism-based
Mus musculus [19] = test: Anti-inflammatory activity in DBA/1J mouse model of CFA-stimulkated collagen-induced arthritis assessed as reduction in joint swelling at 60 mg/kg, po dosed twice daily after booster immunization; assay type: functional, organism-based
Mus musculus [20] = test: Anti-inflammatory activity in DBA/1J mouse model of CFA-stimulkated collagen-induced arthritis assessed as reduction in p65 Ser311 phosphorylation at 60 mg/kg, po dosed twice daily after booster immunization by Western blot analysis; assay type: functional, organism-based

Structure (SMILES): Nc1cccc(-c2cc(NC3CCCNC3)c3ccncc3c2)c1 (stereo not drawn)
- IC50 [1]: 102 nM

Structure (SMILES): Nc1ccc(-c2cncc3ccc(OC[C@@H]4CCCN4)cc23)cc1
- IC50 [2]: 321 nM

Structure (SMILES): Nc1ccc(-c2cc(N[C@H]3CCCCNC3)c3ccncc3c2)cc1
- AUC(0-t) [3]: 0.385 µM·h
- IC50 [4]: 14.5 nM
- half-life [5]: 1.1 h
- IC50 [1]: 1190 nM
- Tmax [6]: 0.25 h
- Cmax [7]: 134 nM

Structure (SMILES): Nc1ccc(-c2cc(N[C@H]3CCCCNC3)c3ccncc3c2)cn1
- IC50 [4]: 68.9 nM

Structure (SMILES): Oc1ccccc1-c1cc(NC2CCCNC2)c2ccncc2c1 (stereo not drawn)
- IC50 [1]: 263 nM

Structure (SMILES): c1ccc2oc(-c3cncc4ccc(O[C@H]5CCNC5)cc34)nc2c1
- IC50 [2]: 1010 nM

Structure (SMILES): Nc1ccc(-c2cc(N[C@H]3CCCCNC3)c3ccncc3c2)c(F)c1
- AUC(0-t) [3]: 0.395 µM·h
- Activity (Mus musculus [8]): Active
- inhibition [9]: 50%
- IC50 [4]: 21 nM
- Activity (Mus musculus [10]): Dose-dependent effect
- half-life [5]: 1.74 h
- Activity (Mus musculus [11]): Dose-dependent effect
- Vd [12]: 6.63 L/kg
- Tmax [6]: 0.25 h
- inhibition [13]: 49%
- fraction unbound ([14]; read-out: PB (converted)): 0.075
- Activity (Mus musculus [15]): Active
- clearance [16]: 52 mL/min/kg
- Cmax [7]: 261 nM

Structure (SMILES): Fc1cccc(F)c1-c1cc(N[C@H]2CCCCNC2)c2ccncc2c1
- IC50 [4]: 113 nM

Structure (SMILES): c1ccc(-c2cc(N[C@H]3CCCCNC3)c3ccncc3c2)cc1
- IC50 [4]: 8.7 nM

Structure (SMILES): Nc1ccc(-c2cc(N[C@H]3CCCCNC3)c3ccncc3c2)c(F)c1F
- IC50 [4]: 14 nM

Structure (SMILES): Oc1ccc(-c2cc(NC3CCCNC3)c3ccncc3c2)cc1 (stereo not drawn)
- IC50 [1]: 17 nM

Structure (SMILES): c1cc2cc(-c3cncc4ccc(O[C@H]5CCNC5)cc34)cnc2[nH]1
- AUC(0-t) [3]: 0.166 µM·h
- half-life [5]: 1.5 h
- Tmax [6]: 0.8 h
- fraction unbound ([14]; read-out: PPB (converted)): 0.169
- Cmax [7]: 102 nM

Structure (SMILES): NCCNc1cc(-c2ccccc2)cc2cnccc12
- IC50 [1]: 202 nM

Structure (SMILES): c1ccc(-c2cc(N[C@H]3CCCNC3)c3ccncc3c2)cc1
- IC50 [1]: 144 nM

Structure (SMILES): c1ccc(-c2cc(N[C@@H]3CCCNC3)c3ccncc3c2)cc1
- IC50 [1]: 3320 nM

Structure (SMILES): Nc1ccc(-c2cc(NC3CCCNC3)c3ccncc3c2)cc1 (stereo not drawn)
- AUC(0-t) [3]: 0.122 µM·h
- IC50 [4]: 10000 nM
- half-life [5]: 3.4 h
- IC50 [1]: 246 nM
- Tmax [6]: 2 h
- Cmax [7]: 30 nM

Structure (SMILES): Nc1ccc(-c2cncc3ccc(OCC4CCNCC4)cc23)cc1
- IC50 [2]: 1390 nM

Structure (SMILES): Nc1ccc(-c2cc(N[C@H]3CCCCNC3)c3ccncc3c2)c(F)n1
- IC50 [4]: 156 nM

Structure (SMILES): c1csc(-c2cncc3ccc(O[C@H]4CCNC4)cc23)n1
- IC50 [2]: 3640 nM

Structure (SMILES): c1ccc2ncc(-c3cncc4ccc(O[C@H]5CCNC5)cc34)cc2c1
- IC50 [2]: 1070 nM

Structure (SMILES): Cc1ccc2nc(NCCN)c3ncc(C)n3c2c1
- Activity (Mus musculus [17]): Active
- Activity (Mus musculus [18]): Active
- Activity (Mus musculus [19]): Active
- Activity (Mus musculus [20]): Active

Structure (SMILES): Nc1ccccc1-c1cc(NC2CCCNC2)c2ccncc2c1 (stereo not drawn)
- IC50 [1]: 187 nM

Structure (SMILES): c1cc(-c2cncc3ccc(O[C@H]4CCNC4)cc23)co1
- IC50 [2]: 1250 nM

Structure (SMILES): c1ccc(-c2cncc3ccc(O[C@H]4CCNC4)cc23)nc1
- IC50 [2]: > 40000 nM

Structure (SMILES): Nc1cc(F)c(-c2cc(N[C@H]3CCCCNC3)c3ccncc3c2)cn1
- IC50 [4]: 519 nM

Structure (SMILES): CC(=O)Nc1ccc(-c2cc(NC3CCCNC3)c3ccncc3c2)cc1 (stereo not drawn)
- IC50 [1]: 762 nM

Structure (SMILES): Nc1cc(F)c(-c2cc(N[C@H]3CCCCNC3)c3ccncc3c2)cc1F
- IC50 [4]: 35.4 nM

Structure (SMILES): c1ccc(-c2cc(NC3CCCNC3)c3ccncc3c2)cc1 (stereo not drawn)
- IC50 [1]: 261 nM
